We go through eight molecules from ChEMBL document CHEMBL1201862, “PubChem BioAssay data set” (2004).

Some test systems named below: K562; BT-549; PC-3; NCI/ADR-RES; SN12C; SR; SNB-75; NCI-H460; UACC-257; 786-0; OVCAR-5; SK-MEL-2; HT-29; SK-MEL-5; MOLT-4; RPMI-8226; U-251; LOX IMVI; KM12; UACC-62.
Holding throughout (assay): NCI anticancer screen, dose series, 48 h

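Interpolation was linear, between the two tested concentrations surrounding the appropriate level; five concentrations were tested over 48 hours in 96-well plates. The concentration for 50% growth inhibition is given as GI50.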 Activity calls are given as the source filed them. Rule as the data show it: active = GI50 up to about 1.1 µM and inactive = higher.

As for `CC1CC(Nc2ccc(Br)cc2)N(C(=O)c2ccc(Br)cc2)O1` (stereo unspecified), the GI50 in the experiment with K562 is 0.435 µM (active); in the experiment on BT-549, > 10 µM (inactive); in the experiment on PC-3, 2.23 µM (inactive); in the experiment on NCI/ADR-RES, 2.19 µM (inactive); in the experiment on SN12C it was 2.75 µM (inactive); in the experiment on SR, 2.19 µM (inactive). In addition, the GI50 in the experiment with SNB-75 was 8.28 µM (inactive); in the experiment with NCI-H460, 7.48 µM (inactive); with UACC-257, 4.46 µM (inactive); in the experiment with 786-0, > 10 µM (inactive); in the experiment with OVCAR-5, 6.37 µM (inactive); in the experiment with SK-MEL-2 it was > 10 µM (inactive). Also, the GI50 with HT-29 was 1.73 µM (inactive); in the experiment on SK-MEL-5 it was > 10 µM (inactive); with MOLT-4, 5.74 µM (inactive); with RPMI-8226, 4.78 µM (inactive).
For the molecule `COc1ccc(N2C(=O)C3c4[nH]c5ccc(OCc6ccccc6)cc5c4C4CCC(C(C)(C)C)CC4C3C2=O)cc1` (stereo unspecified), the GI50 in the experiment with K562 was > 100 µM (inactive); in the experiment with BT-549, > 100 µM (inactive); with PC-3, > 100 µM (inactive); in the experiment with NCI/ADR-RES it was 63.5 µM (inactive); in the experiment with SN12C, 78.5 µM (inactive); in the experiment with SR it was > 100 µM (inactive). Moreover, the GI50 is 27.1 µM (inactive) with U-251; > 100 µM (inactive) with LOX IMVI; > 100 µM (inactive) in the experiment with KM12; > 100 µM (inactive) in the experiment with NCI-H460; > 100 µM (inactive) with UACC-257; 27.9 µM (inactive) in the experiment on 786-0. For the same molecule, the GI50 with OVCAR-5, in the experiment on SK-MEL-2, in the experiment on HT-29, in the experiment on SK-MEL-5, in the experiment with MOLT-4 and with UACC-62 was > 100 µM (inactive) each time. In the experiment with RPMI-8226, the GI50 is > 100 µM (inactive).
Regarding `CC(=O)Oc1ccn2nc(C)c(Br)c2c1`, the GI50 is 39.2 µM (inactive) with K562; > 100 µM (inactive) in the experiment with BT-549; > 53.6 µM (inactive) in the experiment on PC-3; > 100 µM (inactive) with NCI/ADR-RES; > 100 µM (inactive) in the experiment on SN12C; > 76.7 µM (inactive) with SR. Further, the GI50 in the experiment with SNB-75 was > 44.1 µM (inactive); in the experiment on U-251 it was 97.7 µM (inactive); in the experiment on LOX IMVI it was 34 µM (inactive); with KM12, > 100 µM (inactive); in the experiment with NCI-H460, 98.2 µM (inactive); with UACC-257, 36.2 µM (inactive). For the same molecule, the GI50 in the experiment on 786-0 is > 100 µM (inactive); with OVCAR-5, > 100 µM (inactive); in the experiment on SK-MEL-2, > 54 µM (inactive); in the experiment on HT-29, 53.3 µM (inactive); in the experiment with SK-MEL-5 it was 42.6 µM (inactive); in the experiment with MOLT-4 it was 43 µM (inactive). Also, in the experiment on UACC-62, the GI50 is 25.5 µM (inactive).
For the molecule `CCOC(=O)CCC(C(=O)OCC)n1nc2ccc(Nc3c(C)[n+]([O-])c4ccc(Cl)cc4[n+]3[O-])cc2n1` (stereo unspecified), the GI50 was 41.4 µM (inactive) with K562; 28.1 µM (inactive) in the experiment with BT-549; 26.5 µM (inactive) in the experiment on PC-3; 18.8 µM (inactive) in the experiment on NCI/ADR-RES; 18.9 µM (inactive) in the experiment on SN12C; 34.1 µM (inactive) in the experiment on SR. Also, the GI50 with U-251 is 15 µM (inactive); in the experiment with LOX IMVI it was 14.4 µM (inactive); with KM12, 56.8 µM (inactive); in the experiment with NCI-H460 it was 17 µM (inactive); in the experiment with UACC-257 it was 24.5 µM (inactive); with 786-0, 16.5 µM (inactive). In addition, the GI50 was 30.9 µM (inactive) with OVCAR-5; 20 µM (inactive) with SK-MEL-2; 30.9 µM (inactive) with HT-29; 21.8 µM (inactive) with SK-MEL-5; 27.9 µM (inactive) with MOLT-4; 26.6 µM (inactive) in the experiment with UACC-62. For the same molecule, the GI50 in the experiment with RPMI-8226 was 44.9 µM (inactive).
Consider `OC1(c2ccccc2)CSc2ncnn21` (stereo unspecified), for which the GI50 in the experiment on K562, with BT-549, in the experiment on PC-3, in the experiment on NCI/ADR-RES, in the experiment with SN12C and in the experiment with SR was > 100 µM (inactive) each time. The GI50 with SNB-75, in the experiment on U-251, with LOX IMVI, in the experiment with KM12, with NCI-H460 and in the experiment with UACC-257 was > 100 µM (inactive) in each case. For the same molecule, the GI50 in the experiment on 786-0, in the experiment with SK-MEL-2, in the experiment with HT-29, in the experiment with SK-MEL-5, in the experiment with MOLT-4 and in the experiment on UACC-62 was > 100 µM (inactive) throughout.
As for `Cc1csc(NNC(N)=O)n1`, the GI50 in the experiment on BT-549 was > 100 µM (inactive); in the experiment on PC-3, > 100 µM (inactive); in the experiment with NCI/ADR-RES, > 100 µM (inactive); in the experiment with SN12C, > 100 µM (inactive); in the experiment on SR, 25.6 µM (inactive); in the experiment with SNB-75 it was > 100 µM (inactive). Moreover, the GI50 with U-251, in the experiment with LOX IMVI, in the experiment on KM12, with NCI-H460, with UACC-257 and in the experiment with 786-0 was > 100 µM (inactive) each time. The GI50 in the experiment with OVCAR-5, in the experiment with SK-MEL-2, with HT-29, in the experiment with SK-MEL-5, with MOLT-4 and in the experiment on UACC-62 was > 100 µM (inactive) in each case.
Turning to `N#Cc1nc(CCc2nc(C#N)c(N)o2)oc1N`, the GI50 with K562, with BT-549, in the experiment with PC-3, with NCI/ADR-RES, with SN12C and with SR was > 10 µM (inactive) each time. In addition, the GI50 with SNB-75, in the experiment on LOX IMVI, in the experiment with KM12, in the experiment on NCI-H460, in the experiment on UACC-257 and in the experiment on 786-0 was > 10 µM (inactive) each time. The GI50 with OVCAR-5, in the experiment on HT-29, in the experiment on SK-MEL-5, in the experiment with MOLT-4, in the experiment on UACC-62 and in the experiment with RPMI-8226 was > 10 µM (inactive) each time.
`COC1=C2C=[N+](C)C3C(=C2C=CC1OC)Cc1cc2c(cc13)OCO2` (stereo unspecified): the GI50 in the experiment with K562 was 6.93 µM (inactive); in the experiment with BT-549, 12.7 µM (inactive); with PC-3, 16.5 µM (inactive); in the experiment on NCI/ADR-RES, 29.9 µM (inactive); in the experiment with SN12C it was 4.43 µM (inactive); in the experiment with SR it was 0.879 µM (active). The GI50 in the experiment on SNB-75 is 14.8 µM (inactive); with U-251, 9.42 µM (inactive); with LOX IMVI, 16.3 µM (inactive); in the experiment with KM12 it was 2.8 µM (inactive); in the experiment on UACC-257 it was 11.4 µM (inactive); in the experiment on 786-0 it was 11.9 µM (inactive). The GI50 in the experiment on OVCAR-5 is 18.2 µM (inactive); in the experiment on SK-MEL-2 it was 15.5 µM (inactive); with HT-29 it was 13.5 µM (inactive); in the experiment with SK-MEL-5 it was 11.2 µM (inactive); in the experiment with MOLT-4, 3.77 µM (inactive); in the experiment with UACC-62 it was 7.6 µM (inactive). For the same molecule, in the experiment with RPMI-8226, the GI50 was 2.53 µM (inactive).
